Experimental data reported in PubChem BioAssay (NCI).
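Values below derive from 48-hour exposures of cells grown in 96-well plates, with endpoints linearly interpolated between the two concentrations bracketing the appropriate inhibition level. Abbreviation: GI50, concentration required for 50% inhibition of growth. TGI is the concentration that stops growth completely.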

Columns and labels:
Test in all cases: DTP human tumour cell line panel, 48 h
BT-549 breast = tested on: BT-549 breast
PC-3 prostate = tested on: PC-3 prostate
SF-295 CNS = tested on: SF-295 CNS
OVCAR-4 ovarian = tested on: OVCAR-4 ovarian
MDA-MB-435 = tested on: MDA-MB-435
MOLT-4 leukemia = tested on: MOLT-4 leukemia
A549 NSCLC = tested on: A549 NSCLC
NCI-H226 lung = tested on: NCI-H226 lung
MALME-3M melanoma = tested on: MALME-3M melanoma
RXF 393 renal = tested on: RXF 393 renal
NCI-H522 lung = tested on: NCI-H522 lung
RPMI-8226 leukemia = tested on: RPMI-8226 leukemia
UO-31 renal = tested on: UO-31 renal
COLO 205 colon = tested on: COLO 205 colon
OVCAR-5 ovarian = tested on: OVCAR-5 ovarian
NCI-H23 lung = tested on: NCI-H23 lung
UACC-257 melanoma = tested on: UACC-257 melanoma
SR leukemia = tested on: SR leukemia
CAKI-1 renal = tested on: CAKI-1 renal
SNB-75 CNS = tested on: SNB-75 CNS
SW-620 colon = tested on: SW-620 colon
HCC-2998 colon = tested on: HCC-2998 colon
HL-60(TB) leukemia = tested on: HL-60(TB) leukemia
NCI-H460 lung = tested on: NCI-H460 lung
OVCAR-8 ovarian = tested on: OVCAR-8 ovarian
MDA-MB-231 breast = tested on: MDA-MB-231 breast
MCF7 breast = tested on: MCF7 breast
SN12C renal = tested on: SN12C renal
HCT-116 colon = tested on: HCT-116 colon
SK-OV-3 ovarian = tested on: SK-OV-3 ovarian
ACHN renal = tested on: ACHN renal
NCI/ADR-RES ovarian = tested on: NCI/ADR-RES ovarian
M14 melanoma = tested on: M14 melanoma
TK-10 renal = tested on: TK-10 renal
HT29 colon = tested on: HT29 colon
SK-MEL-5 melanoma = tested on: SK-MEL-5 melanoma
A498 renal = tested on: A498 renal
IGROV1 ovarian = tested on: IGROV1 ovarian
UACC-62 melanoma = tested on: UACC-62 melanoma
SF-539 CNS = tested on: SF-539 CNS
K-562 leukemia = tested on: K-562 leukemia
KM12 colon = tested on: KM12 colon
SF-268 CNS = tested on: SF-268 CNS
SNB-19 CNS = tested on: SNB-19 CNS
786-0 renal = tested on: 786-0 renal
CCRF-CEM leukemia = tested on: CCRF-CEM leukemia
HCT-15 colon = tested on: HCT-15 colon
OVCAR-3 ovarian = tested on: OVCAR-3 ovarian
HOP-62 NSCLC = tested on: HOP-62 NSCLC
T-47D breast = tested on: T-47D breast
HS 578T breast = tested on: HS 578T breast
DU-145 prostate = tested on: DU-145 prostate
SK-MEL-28 melanoma = tested on: SK-MEL-28 melanoma

`COc1cc(/C=C/C(=O)c2ccccc2)cc(OC)c1OC` showed a GI50 (BT-549 breast) of 3.79 µM, a TGI (BT-549 breast) of 11.2 µM and a GI50 (PC-3 prostate) of 4.54 µM. For the same molecule, the TGI (PC-3 prostate) was 17.9 µM, the GI50 (SF-295 CNS) was 10.3 µM and the TGI (SF-295 CNS) was 24.2 µM. It also gave a GI50 (OVCAR-4 ovarian) of 4.53 µM, a TGI (OVCAR-4 ovarian) of 19.4 µM and a GI50 (MDA-MB-435) of 3.06 µM. The TGI (MDA-MB-435) was 11.3 µM, the GI50 (MOLT-4 leukemia) was 2.94 µM and the TGI (MOLT-4 leukemia) was 8.13 µM. The GI50 (A549 NSCLC) was 6.14 µM, the TGI (A549 NSCLC) was 23 µM and the GI50 (NCI-H226 lung) was 2.96 µM. It also gave a TGI (NCI-H226 lung) of 14.3 µM, a GI50 (MALME-3M melanoma) of 4.83 µM and a TGI (MALME-3M melanoma) of 19.7 µM. The GI50 (RXF 393 renal) was 3.11 µM, the TGI (RXF 393 renal) was 11.5 µM and the GI50 (NCI-H522 lung) was 1.95 µM. The TGI (NCI-H522 lung) was 3.88 µM, the GI50 (RPMI-8226 leukemia) was 2.38 µM and the TGI (RPMI-8226 leukemia) was 6.29 µM. The GI50 (UO-31 renal) was 1.86 µM, the TGI (UO-31 renal) was 3.78 µM and the GI50 (COLO 205 colon) was 9.32 µM. For the same molecule, the TGI (COLO 205 colon) was 21.7 µM, the GI50 (OVCAR-5 ovarian) was 3.95 µM and the TGI (OVCAR-5 ovarian) was 16.6 µM. The GI50 (NCI-H23 lung) was 7.45 µM, the TGI (NCI-H23 lung) was 23.3 µM and the GI50 (UACC-257 melanoma) was 3.7 µM. For the same molecule, the TGI (UACC-257 melanoma) was 15 µM, the GI50 (SR leukemia) was 2.33 µM and the TGI (SR leukemia) was 6.68 µM. For the same molecule, the GI50 (CAKI-1 renal) was 5.61 µM, the TGI (CAKI-1 renal) was 19.9 µM and the GI50 (SNB-75 CNS) was 10.2 µM. It also gave a TGI (SNB-75 CNS) of 22.2 µM, a GI50 (SW-620 colon) of 2.48 µM and a TGI (SW-620 colon) of 7.2 µM. For the same molecule, the GI50 (HCC-2998 colon) was 12.3 µM, the TGI (HCC-2998 colon) was 25.6 µM and the GI50 (HL-60(TB) leukemia) was 2.56 µM. For the same molecule, the TGI (HL-60(TB) leukemia) was 6.82 µM, the GI50 (NCI-H460 lung) was 2.25 µM and the TGI (NCI-H460 lung) was 5.91 µM. The GI50 (OVCAR-8 ovarian) was 2.95 µM, the TGI (OVCAR-8 ovarian) was 11.8 µM and the GI50 (MDA-MB-231 breast) was 5.61 µM. It also gave a TGI (MDA-MB-231 breast) of 20 µM, a GI50 (MCF7 breast) of 0.398 µM and a TGI (MCF7 breast) of 10.3 µM. The GI50 (SN12C renal) was 2.94 µM, the TGI (SN12C renal) was 10.9 µM and the GI50 (HCT-116 colon) was 1.98 µM. For the same molecule, the TGI (HCT-116 colon) was 4.07 µM, the GI50 (SK-OV-3 ovarian) was 4.42 µM and the TGI (SK-OV-3 ovarian) was 13.8 µM. It also gave a GI50 (ACHN renal) of 2.31 µM, a TGI (ACHN renal) of 6.29 µM and a GI50 (NCI/ADR-RES ovarian) of 3.38 µM. For the same molecule, the TGI (NCI/ADR-RES ovarian) was 15 µM, the GI50 (M14 melanoma) was 3.27 µM and the TGI (M14 melanoma) was 11.6 µM. For the same molecule, the GI50 (TK-10 renal) was 10.2 µM, the TGI (TK-10 renal) was 22.2 µM and the GI50 (HT29 colon) was 2.47 µM. For the same molecule, the TGI (HT29 colon) was 5.37 µM, the GI50 (SK-MEL-5 melanoma) was 4.12 µM and the TGI (SK-MEL-5 melanoma) was 15 µM. For the same molecule, the GI50 (A498 renal) was 12.3 µM, the TGI (A498 renal) was 25.3 µM and the GI50 (IGROV1 ovarian) was 4.04 µM. The TGI (IGROV1 ovarian) was 14.2 µM, the GI50 (UACC-62 melanoma) was 2.23 µM and the TGI (UACC-62 melanoma) was 5.7 µM. It also gave a GI50 (SF-539 CNS) of 2.96 µM, a TGI (SF-539 CNS) of 10.1 µM and a GI50 (K-562 leukemia) of 3.23 µM. For the same molecule, the TGI (K-562 leukemia) was 10.7 µM, the GI50 (KM12 colon) was 3.22 µM and the TGI (KM12 colon) was 10.2 µM. It also gave a GI50 (SF-268 CNS) of 4.2 µM, a TGI (SF-268 CNS) of 17.5 µM and a GI50 (SNB-19 CNS) of 12.8 µM. It also gave a TGI (SNB-19 CNS) of 26.8 µM, a GI50 (786-0 renal) of 2.74 µM and a TGI (786-0 renal) of 7.36 µM. The GI50 (CCRF-CEM leukemia) was 1.49 µM, the TGI (CCRF-CEM leukemia) was 5.89 µM and the GI50 (HCT-15 colon) was 1.99 µM. It also gave a TGI (HCT-15 colon) of 5.26 µM, a GI50 (OVCAR-3 ovarian) of 4.02 µM and a TGI (OVCAR-3 ovarian) of 12.9 µM. For the same molecule, the GI50 (HOP-62 NSCLC) was 6.06 µM, the TGI (HOP-62 NSCLC) was 19.7 µM and the GI50 (T-47D breast) was 3.93 µM. It also gave a TGI (T-47D breast) of 20.9 µM, a GI50 (HS 578T breast) of 4.62 µM and a TGI (HS 578T breast) of 39.8 µM. The GI50 (DU-145 prostate) was 4.92 µM, the TGI (DU-145 prostate) was 16.4 µM and the GI50 (SK-MEL-28 melanoma) was 2.29 µM. For the same molecule, the TGI (SK-MEL-28 melanoma) was 5.75 µM.
